From patent US5677282A (Proscript, Inc., priority 1995, dated 1997)

Columns and labels:
[1] = test system: bovine cartilage explants; test: Bovine cartilage explant assay (35S-GAG release, rhIL-1α stimulated); assay type: cell-based; details: 25 μM compound, rhIL-1α 5 ng/mL, 3-4 days culture
Source text: A tissue culture assay was used to measure the ability of the compounds of the present invention to slow the degradation of the extracellular matrix by metalloproteinases. This assay measured the amount of ^35 S-glycosaminoglycan (^35 S-GAG) released from labeled bovine cartilage explants.
Knee joints from a 1 to 3 week old calf were obtained immediately after sacrifice from the Abattoir and then transported on ice. The intact joints were washed well with tap water and soaked in 50% (v/v) Povidine iodine solution, obtained from Burre National, Inc., Baltimore, Md. All subsequent steps were performed in a laminar flow tissue culture hood using standard sterile technique. The joint was immobilized in a shank holder and the joint capsule was cut open to expose the articular cartilage. Cartilage explant plugs, approximately 15 mg wet weight, were removed from the flat articulating surfaces in the lower-most region of the knee joint using a sterile steel cork-borer and collected in a 250 mL roller bottle containing about 100 mL fresh Delbecco's minimum essential medium (DMEM), obtained from Gibco BRC, Life Technologies, Gaithersburg, Md., containing 4.5 g/l (D)-glucose and (L)-glutamine, without sodium pyruvate. The fresh media also contained enough Hepes buffer and sodium bicarbonate such that the pH was about 7.4. The media was then further supplemented just before use with 100 units Penicillin, 100 μg Streptomycin, and 50 μg (L)-ascorbic acid per mL of medium.
Once collected, the explant plugs were washed four times with 50 mL fresh DMEM. The plugs were then placed in the incubator for a minimum of 1 hour to equilibrate, before proceeding to make disks from the articulating surface of each plug. A 1 mm thick disk was sliced from individual plugs from the end that was the articulating surface of the joint. The plug was held steady in the sterile template (4 mm diameter×1.5 mm deep) using sterile forceps. A scalpel blade was used to carefully slice off the disk. Only the superficial articulating surface responded well in culture.
Individual disks obtained were transferred to a tissue culture flask containing about 100 mL fresh media. The flask containing the disks was placed in an incubator at 37° C. (with 5% CO2, 95% air) and allowed to equilibrate overnight and at least one additional day before labeling. When ready to label, the old media was replaced with 50 mL fresh media containing about 500 μCi ^35 S-Sodium Sulfate. The plugs were labeled in bulk for about 48 hours. The next morning, the "hot" media was removed and replaced with fresh "cold" media. The disks were again allowed to equilibrate overnight before being used for actual experiments.
The media in which the disks were stored was changed immediately prior to performing the assay. The disks were then returned to the incubator until the test media and the two control media had been prepared. The test media consisted of the desired concentration of a compound being tested for its ability to inhibit extracellular matrix degradation and concomitant recombinant human Interleukin rhIL-1α (5 ng/mL) in fresh DMEM solution. The control media were identical to the test media, except that the first control media lacked rhIL-1α and the second control media lacked the test compound. 250 μL of each of the test and control media were transferred to separate 96-well TC plates. Flamed forceps were used to transfer a disk from the incubator to each 96-well TC plates that had been filled with either the test media or one of the two control media.
The TC plates were then placed in the incubator and cultured for 3-4 days (initial incubation with rhIL-1α alpha takes at least 3 days to stimulate endogenous metalloproteinases). A 50 μL aliquot of media from each TC plate was saved and counted. The rest of the media was removed with a suction device.
The cartilage disks from each TC plate were also saved for counting. […]

stromelysin = stromelysin (Homo sapiens, UniProt P08254); test: Assay of stromelysin inhibition activity (fluorogenic coumarin peptide substrate); assay type: biochemical; details: trypsin-activated stromelysin 2 nM, H-150 buffer pH 7.4, room temperature; read-out: Ki(app)
stromelysin, sequence (P08254 100-477): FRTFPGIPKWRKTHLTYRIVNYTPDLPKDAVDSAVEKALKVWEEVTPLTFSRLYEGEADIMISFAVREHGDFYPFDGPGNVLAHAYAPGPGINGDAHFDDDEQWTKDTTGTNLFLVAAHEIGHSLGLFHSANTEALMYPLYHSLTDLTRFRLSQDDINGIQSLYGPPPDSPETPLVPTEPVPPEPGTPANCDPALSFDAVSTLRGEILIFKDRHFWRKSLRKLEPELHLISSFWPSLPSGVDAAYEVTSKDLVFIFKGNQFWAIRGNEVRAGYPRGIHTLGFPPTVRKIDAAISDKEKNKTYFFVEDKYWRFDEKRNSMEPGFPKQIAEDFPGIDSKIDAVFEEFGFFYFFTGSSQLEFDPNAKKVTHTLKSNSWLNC
Method: Stromelysin was first activated with trypsin. This was done by preparing a reaction mixture in H-150 (H-150 consists of 10 mM CaCl2, 150 mM NaCl and 100 mM HEPES at pH 7.4) containing a final concentration of 25 μg/mL trypsin and 2.2 μM of stromelysin (Marcy et al., Biochemistry,30:6476 (1991); Koklitis et al., Biochem. J., 376:217 (1991). The reaction was incubated for 30 minutes at 37° C. and then quenched by adding trypsin inhibitor agarose to the reaction mixture at a 20 fold excess with respect to trypsin.
The reaction mixture was centrifuged at 14,000 rpm (16,000 ×g) for 30 minutes using an Eppendorf Centrifuge 5415C. The supernant, which contains activated stromelysin, was concentrated with a Centricon 10 (5000 g, 1 hour). A sample was analyzed by Bradford total protein assay and 12% SDS polyacrylamide gel electrophoresis.
All steps of the stromelysin inhibition assay were performed at room temperature. Assay solutions were prepared for each inhibitor tested. Activated stromelysin was added to a stirred covelte to a final concentration of 2 nM in 2 mL of H-150 buffer. 4 μL 5 mM coumarin peptide substrate was dissolved in DMSO and the initial rate of hydrolysis was measured for 100-200 seconds.
Substrate hydrolysis was assessed by fluorescence using a slit width of 10:10, excitation at 328 nm and emission at 393 nm. Ki was calculated based on the assumption of simple competitive inhibition and a substrate concentration much less than Km. 2 μL of 10 mM inhibitor in DMSO was added and the reduction in hydrolysis rate measured. The addition of 2 μL of inhibitor was continued until a 30-70% inhibition was observed.

92 kD gelatinase = 92 kD gelatinase (Homo sapiens, UniProt P14780); test: Assay of 92 KD gelatinase inhibition activity; assay type: biochemical; details: 92KD gelatinase 25 pM, H-150 buffer pH 7.4; read-out: Ki(app)
92 kD gelatinase, sequence (P14780 107-707): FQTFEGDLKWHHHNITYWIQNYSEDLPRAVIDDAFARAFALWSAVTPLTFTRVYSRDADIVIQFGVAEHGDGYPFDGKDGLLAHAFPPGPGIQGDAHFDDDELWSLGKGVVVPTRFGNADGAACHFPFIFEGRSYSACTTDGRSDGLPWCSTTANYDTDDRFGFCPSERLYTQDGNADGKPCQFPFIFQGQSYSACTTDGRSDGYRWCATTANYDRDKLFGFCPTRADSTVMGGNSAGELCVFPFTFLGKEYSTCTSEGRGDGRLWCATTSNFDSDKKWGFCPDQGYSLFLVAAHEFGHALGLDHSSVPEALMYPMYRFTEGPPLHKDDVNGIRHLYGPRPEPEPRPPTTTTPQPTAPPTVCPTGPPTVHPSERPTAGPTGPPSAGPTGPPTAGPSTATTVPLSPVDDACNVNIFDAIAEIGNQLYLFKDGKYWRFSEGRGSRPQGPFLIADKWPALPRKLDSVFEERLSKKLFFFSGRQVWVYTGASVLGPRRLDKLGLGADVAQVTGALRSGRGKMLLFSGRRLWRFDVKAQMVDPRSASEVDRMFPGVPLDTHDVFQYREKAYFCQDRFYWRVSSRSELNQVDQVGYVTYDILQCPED
Method: H-150 buffer, pH 7.4, was prepared by CaCl2 H2 O (1.47 grams), NaCl (8.77 grams) and N-[2-hydroxyethyl]piperazine-N'-[2-ethanesulfonic acid](23.83 grams) to distilled and deionized water and then bring the final volume of the solution to 1 liter. A reaction mixture having a final volume of 500 μL was prepared with H-150 buffer, 200 μgrams of Pro-92KD gelatinase (Strongin et al., J. Biol. Chem., 268:14033 (1993); Goldberg, et al., J. Biol. Chem., 267:4583 (1992); Okada et al., J. Biol. Chem. 267:21712 (1992)), p-aminophenyl mercuric acetate (Sigma Chemical Co., St. Louis, Mo.) (1 mM) and Brij (dodexylpoly(oxyethyleneglycolether))(0,008% w/v). The reaction mixture wsa then incubated for 24 hours at 37° C.
The reaction mixture was applied to a NAP-5 column (G-25 SEPHADEX™, Pharmacia). Fractions containing 72KD gelatinase were identified using 12% polyacrylamide gel electrophoresis and concentrated to about 100-200 μliters by centrifigation (5000 g, 1 hour).
(§1) A solution containing H-150 buffer (2.0 mL), 92KD gelatinase (25 pM) and ethylphenolpoly(ethylene-glycolether)n (Boerhringer Mannheim) (4.0 μM) was prepared in a stirred cuvette. Coumarin peptide substrate (4 μL of a 5 mM solution in dimethyl sulfoxide) was added to the reaction mixture. The rate of hydrolysis was determined for about 100-200 seconds by measuring the fluorescence of the reaction at ex328 nanometers and […] using a Hitachi F-2000 Fluorescence Spectrophotometer.
(§2) 2 μL of a 10 mM inhibitor stock solution (in dimethyl sulfoxide) is added and the reduction in the rate of hydrolysis is determined. Additional 2 μL aliquots of the stock inhibitor solution is added until a 30% to 70% inhibition is observed. Ki is calculated on the assumption of simple competitive inhibition and that the substrate concentration is much less than Km.

[2] = biological target: human neutrophil collagenase (Homo sapiens, UniProt P22894); test: Assay of human neutrophil collagenase inhibition activity; assay type: biochemical; details: human neutrophil collagenase 2 nM, H-150 buffer pH 7.4; read-out: Ki(app)
human neutrophil collagenase, sequence (P22894 101-467): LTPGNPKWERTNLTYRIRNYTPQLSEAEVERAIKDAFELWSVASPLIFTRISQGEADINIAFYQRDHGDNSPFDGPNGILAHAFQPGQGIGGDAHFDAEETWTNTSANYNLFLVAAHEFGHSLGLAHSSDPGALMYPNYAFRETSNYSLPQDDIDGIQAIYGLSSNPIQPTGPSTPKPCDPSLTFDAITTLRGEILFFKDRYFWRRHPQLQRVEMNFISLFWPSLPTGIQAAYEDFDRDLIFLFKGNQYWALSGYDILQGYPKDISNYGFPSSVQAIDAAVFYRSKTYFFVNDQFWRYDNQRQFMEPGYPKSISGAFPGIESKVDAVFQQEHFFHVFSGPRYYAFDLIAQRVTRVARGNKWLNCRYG
Method: H-150 buffer, pH 7.4, was prepared by adding CaCl2 H2 O (1.47 grams), NaCl (8.77 grams) and N-[2-hydroxyethyl]piperazine-N'-[2-ethanesulfonic acid] (23.83 grams) to distilled and deionized water and then bringing the final volume of the solution to 1 liter.
A reaction mixture with a final volume of 2.0 mL was prepared from H-150 buffer, human neutrophil collagenase (Schnierer, et al., Blochem. Biophys. Res. Comm., 191:319 (1993); Knight et al., Federation of Europena Biochemical Societies 296:263 (1992)) (2 nM). Coumarin peptide substrate (4 μL of a 5 mM solution in dimethyl sulfoxide) was added to the reaction mixture. The rate of hydrolysis was determined for about 100-200 seconds by measuring the fluorescence of the reaction at ex328 nanometers and […] using a Hitachi F-2000 Fluorescence Spectrophotometer.
as §2

72 kD gelatinase = biological target: T1, 72 kD gelatinase (Homo sapiens, UniProt P08253); test: Assay of 72 KD gelatinase inhibition activity; assay type: biochemical; details: 72KD gelatinase 180 pM, H-150 buffer pH 7.4; read-out: Ki(app)
T1 sequence (P08253 110-660): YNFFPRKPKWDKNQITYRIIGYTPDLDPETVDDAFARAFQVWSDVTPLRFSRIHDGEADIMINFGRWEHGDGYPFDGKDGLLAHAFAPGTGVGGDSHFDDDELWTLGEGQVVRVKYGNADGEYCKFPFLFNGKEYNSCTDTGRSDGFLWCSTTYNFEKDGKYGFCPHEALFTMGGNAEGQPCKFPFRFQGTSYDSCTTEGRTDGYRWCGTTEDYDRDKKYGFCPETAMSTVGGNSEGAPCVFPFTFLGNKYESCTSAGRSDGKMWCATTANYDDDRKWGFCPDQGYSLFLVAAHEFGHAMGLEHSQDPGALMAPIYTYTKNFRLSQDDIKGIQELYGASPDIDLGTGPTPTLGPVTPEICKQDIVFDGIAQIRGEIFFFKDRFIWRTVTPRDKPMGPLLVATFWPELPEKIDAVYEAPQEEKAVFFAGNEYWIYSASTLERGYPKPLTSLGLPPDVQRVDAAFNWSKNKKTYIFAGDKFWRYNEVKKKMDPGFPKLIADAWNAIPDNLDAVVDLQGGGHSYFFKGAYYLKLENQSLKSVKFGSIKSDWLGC
Method: H-150 buffer, pH 7.4, was prepared by CaCl2 H2O (1.47 grams), NaCl (8.77 grams) and N-[2 -hydroxyethyl]piperazine-N'-[2-ethanesulfonic acid](23.83 grams) to distilled and deionized water and then bring the final volume of the solution to 1 liter. An reaction mixture having a final volume of 250 μL was prepared with H-150 buffer, 40 μgrams of Pro-72KD gelatinase (Strongin, et al., J. Biol. Chem. 268:14033 (1993); Goldberg, et al., J. Biol. Chem., 267:4583 (1992); Kleiner, et al., Biochemistry 32:1583 (1993)) and p-aminophenyl mercuric acetate (Sigma Chemical Co., St. Louis, Mo.) (1 mM). The reaction mixture was then incubated for 3 hours at 25° C.
The reaction mixture was applied to a NAP-5 column (G-25 SEPHADEX™, Pharmacia). Fractions containing […] were identified using 12% SDS polyacrylamide gel electrphoresis and concentrated to about 100-200 μliters by centrifigation (5000 g, 15 minutes).
as §1, with “mL), 72KD” for “mL), 92KD”, “gelatinase (180” for “gelatinase (25”, “Mannheim) (1.3” for “Mannheim) (4.0”, “substrate (2” for “substrate (4”, “a 1” for “a 5”
as §2

SMILES	% inhibition (concentration [μM]) of cartilage degradation [1]	Ki (stromelysin)	Ki (92 kD gelatinase)	Ki [2]	Ki (72 kD gelatinase)	inhibition at 25 µM ([1]; Bos taurus, read-out: % inhibition (concentration [μM]) of cartilage degradation)
CC(C)[C@H](NC(=O)[C@H](Cc1ccccc1)NC(=O)Cc1ccc(-c2ccccc2)cc1)C(=O)Nc1n[nH]c(=S)s1 [5-(N-(4-phenyl)phenylacetyl-phenylalanyl-valylamino)-1,3,4-thiadiazole-2-thione]	37%	135 nM	–	–	–	–
CC(C)[C@H](NC(=O)[C@H](CSCc1ccccc1)NC(=O)OCc1ccccc1)C(=O)Nc1n[nH]c(=S)s1 [5-(N-benzyloxycarbonyl-((S-benzyl)cysteinyl)-valylamino)-1,3,4-thiadiazole-2-thione]	–	202 nM	2.1 nM	3.2 nM	1.1 nM	–
CC(C)C(NC(=O)C(Cc1ccc(NC(=O)OCc2ccccc2)cc1)NC(=O)OCc1ccccc1)C(=O)Nc1n[nH]c(=S)s1 (centres unmarked) [5-(N-benzyloxycarbonyl-((p-benzyloxycarbonylamino)phenyl-alanyl)-valylamino)-1,3,4-thiadiazole-2-thione]	–	62 nM	0.145 nM	1.17 nM	0.29 nM	–
O=C(CCC(NC(=O)OCc1ccccc1)C(=O)NC(C(=O)Nc1n[nH]c(=S)s1)c1ccccc1)NCCc1ccccc1 (centres unmarked) [5-(N-benzyloxycarbonyl-(γ-N-2-phenylethyl)glutamylphenylglycylamino)-1,3,4-thiadiazole-2-thione]	–	57 nM	0.17 nM	0.54 nM	0.52 nM	–
O=C(N[C@H](CCc1ccccc1)C(=O)Nc1n[nH]c(=S)s1)OCc1ccccc1 [5-(N-benzyloxycarbonyl-D-homophenylalanylamino)-1,3,4-thiadiazole-2-thione]	–	–	–	–	–	22%
CSCC[C@H](NC(=O)[C@H](Cc1ccccc1)NC(=O)OCc1ccccc1)C(=O)Nc1n[nH]c(=S)s1 [5-(N-benzyloxycarbonyl-phenylalanyl-methionylamino)-1,3,4-thiadiazole-2-thione]	–	1120 nM	3.6 nM	7.8 nM	1.7 nM	–
CC(C)[C@H](NC(=O)[C@H](Cc1c[nH]c2ccccc12)NC(=O)[C@H](Cc1ccccc1)NC(=O)OCc1ccccc1)C(=O)Nc1n[nH]c(=S)s1 [5-(N-benzyloxycarbonyl-phenylalanyl-tryptonyl-valylamino)-1,3,4-thiadiazole-2-thione]	–	60 nM	0.36 nM	2.4 nM	0.71 nM	–
